# Test results: ChEMBL document CHEMBL1201862, “PubChem BioAssay data set” (2004)
#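 Each compound was tested at five concentrations against cells in 96-well plates for 48 hours. GI50 marks 50% less growth.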 The source made the active and inactive calls. No stated cut-off is given here; in the data, active = GI50 up to about 1.1 µM and inactive = higher.
# Assays:
# Test in all cases: NCI-60 cell line screen, 48 h
# SK-MEL-2 = test system: SK-MEL-2
# OVCAR-5 = test system: OVCAR-5
# SK-MEL-5 = test system: SK-MEL-5
# MOLT-4 = test system: MOLT-4
# Malme-3M = test system: Malme-3M
# HCT-15 = test system: HCT-15
# NCI/ADR-RES = test system: NCI/ADR-RES
# CCRF-CEM = test system: CCRF-CEM
# SR = test system: SR
# RPMI-8226 = test system: RPMI-8226
# IGROV-1 = test system: IGROV-1
# HOP-92 = test system: HOP-92
# HCT-116 = test system: HCT-116
# OVCAR-4 = test system: OVCAR-4
# UACC-257 = test system: UACC-257
# A549 = test system: A549
# OVCAR-3 = test system: OVCAR-3
# NCI-H460 = test system: NCI-H460
# MDA-N = test system: MDA-N
SMILES,GI50 (SK-MEL-2),GI50 (OVCAR-5),GI50 (SK-MEL-5),GI50 (MOLT-4),GI50 (Malme-3M),GI50 (HCT-15) [µM],GI50 (NCI/ADR-RES),GI50 (CCRF-CEM),GI50 (SR),GI50 (RPMI-8226),GI50 (IGROV-1),GI50 (HOP-92),GI50 (HCT-116),GI50 (OVCAR-4),GI50 (UACC-257),GI50 (A549),GI50 (OVCAR-3),GI50 (NCI-H460),GI50 (MDA-N)
C[C@H]1CC[C@@]2(OC1)O[C@H]1C[C@H]3[C@@H]4CC[C@@H]5C[C@@H](OC6OC(CO)C(O)C(O)C6OC6OC(CO)C(O)C(O)C6O)CC[C@]5(C)[C@H]4CC[C@]3(C)[C@H]1[C@@H]2C (stereo partly drawn),2.28 µM (inactive),1.81 µM (inactive),2.18 µM (inactive),1.84 µM (inactive),2.62 µM (inactive),1.99,2.99 µM (inactive),1.58 µM (inactive),2.07 µM (inactive),1.9 µM (inactive),2.3 µM (inactive),2.37 µM (inactive),2.01 µM (inactive),2.33 µM (inactive),2.15 µM (inactive),2 µM (inactive),2.16 µM (inactive),–,–
CCCCCCCCCCCC(=O)OCC1OC(n2cc(F)c(=O)[nH]c2=O)C(NC(=O)OCc2ccccc2)C(O)C1O (stereo not drawn),19.1 µM (inactive),–,20.3 µM (inactive),21.2 µM (inactive),21 µM (inactive),19.7,–,17.6 µM (inactive),19.1 µM (inactive),19.4 µM (inactive),> 100 µM (inactive),22.4 µM (inactive),16.7 µM (inactive),23.8 µM (inactive),23.4 µM (inactive),20.8 µM (inactive),25 µM (inactive),17.6 µM (inactive),–
Cc1cc(N(CCC#N)CCC#N)ccc1C(/N=N\c1ccc(C(=O)O)cc1)=N\NC(=O)c1cc(Cl)ccc1O,83.6 µM (inactive),> 100 µM (inactive),78.7 µM (inactive),> 100 µM (inactive),56.6 µM (inactive),> 100,37.6 µM (inactive),59.8 µM (inactive),62.8 µM (inactive),> 100 µM (inactive),24.7 µM (inactive),–,36.1 µM (inactive),29.2 µM (inactive),> 100 µM (inactive),42.2 µM (inactive),56.2 µM (inactive),36 µM (inactive),–
COc1ccc(C)cc1NC(=S)C#N,29.2 µM (inactive),29.6 µM (inactive),> 100 µM (inactive),–,–,27.5,27.4 µM (inactive),71 µM (inactive),–,74.8 µM (inactive),–,> 100 µM (inactive),> 100 µM (inactive),–,35.3 µM (inactive),> 100 µM (inactive),27.1 µM (inactive),–,> 100 µM (inactive)
[N-]=[N+]=CC(=O)OC1CCOCC1,> 100 µM (inactive),> 100 µM (inactive),> 100 µM (inactive),> 100 µM (inactive),> 100 µM (inactive),> 100,–,> 100 µM (inactive),> 100 µM (inactive),> 100 µM (inactive),> 100 µM (inactive),> 100 µM (inactive),> 100 µM (inactive),> 100 µM (inactive),> 100 µM (inactive),–,> 100 µM (inactive),> 100 µM (inactive),> 100 µM (inactive)
COc1cc2c(cc1OC)C1=Cc3ccc(OC)c(OC)c3C(C#N)N1CC2 (stereo not drawn),19.7 µM (inactive),> 100 µM (inactive),17.2 µM (inactive),33.1 µM (inactive),22.4 µM (inactive),> 100,> 100 µM (inactive),37.9 µM (inactive),–,20.7 µM (inactive),–,–,36.1 µM (inactive),67 µM (inactive),17.7 µM (inactive),56.4 µM (inactive),34.2 µM (inactive),31.7 µM (inactive),33.7 µM (inactive)
COc1cc2c(cc1C[C@H]1[C@@H]3C[C@H]4c5c(c6ccccc6n5C)C[C@@H]([C@@H]3CO[C@]1(C)OC(C)=O)N4C)c1c(n2C)C2C[C@H]3C(C(C)=O)=COC[C@H]3[C@H](C1)N2C,4.86 µM (inactive),4.35 µM (inactive),3.54 µM (inactive),2.44 µM (inactive),3.18 µM (inactive),3.13,2.93 µM (inactive),2.55 µM (inactive),2.64 µM (inactive),0.764 µM (active),7.24 µM (inactive),4.98 µM (inactive),2.5 µM (inactive),3.8 µM (inactive),4.03 µM (inactive),> 25 µM (inactive),2.66 µM (inactive),3.38 µM (inactive),–
OC1(c2cc3ccccc3s2)CCCCC1,–,40.8 µM (inactive),34.7 µM (inactive),25.8 µM (inactive),–,39.1,47.2 µM (inactive),21.4 µM (inactive),38.4 µM (inactive),–,87.5 µM (inactive),18 µM (inactive),33.3 µM (inactive),39.2 µM (inactive),32.6 µM (inactive),40.8 µM (inactive),30.1 µM (inactive),44.2 µM (inactive),38.4 µM (inactive)
Oc1cc(-c2cccc(C(F)(F)F)c2)nc2cc3c(cc12)OCO3,1.28 µM (inactive),1.49 µM (inactive),–,2.82 µM (inactive),0.518 µM (active),1.38,1.04 µM (active),0.277 µM (active),0.55 µM (active),1.77 µM (inactive),3.29 µM (inactive),2.24 µM (inactive),–,–,–,3.97 µM (inactive),–,1.39 µM (inactive),–
